Source: PubChem BioAssay (NCI)
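Step 1: Grow cells in 96-well plates. Step 2: Expose to compound for 48 hours at 5 concentrations. Step 3: Interpolate endpoints linearly; if unreached, use highest concentration. GI50 = concentration required for 50% inhibition of growth. TGI is the concentration that stops growth completely.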

Legend:
Test in all cases: DTP human tumour cell line panel, 48 h
[1] = system: EKVX NSCLC
[2] = system: NCI-H522 lung
[3] = system: SNB-19 CNS
[4] = system: MOLT-4 leukemia
[5] = system: KM12 colon
[6] = system: COLO 205 colon
[7] = system: SK-MEL-28 melanoma
[8] = system: OVCAR-5 ovarian
[9] = system: SK-MEL-5 melanoma
[10] = system: MCF7 breast

Row | Structure (SMILES) | GI50 [1] [µM] | TGI [1] [µM] | GI50 [2] [µM] | TGI [2] [µM] | GI50 [3] [µM] | TGI [3] [µM] | GI50 [4] [µM] | TGI [4] [µM] | GI50 [5] [µM] | TGI [5] [µM] | GI50 [6] [µM] | TGI [6] [µM] | GI50 [7] [µM] | TGI [7] [µM] | GI50 [8] [µM] | TGI [8] [µM] | GI50 [9] [µM] | TGI [9] [µM] | GI50 [10] [µM] | TGI [10] [µM]
1 | C=C1C[C@@H]2O[C@H]3[C@H]4[C@@H](CC[C@@](C)(OC(=O)CCC)[C@H]42)[C@@H](C)C(=O)O[C@@]3(C)CC[C@H]1OO | 27.7 | 70.8 | 18.2 | 36.5 | 53.8 | > 100 | 11 | 23 | 16.4 | 30.9 | 21.3 | 37.4 | 20 | 35.4 | > 100 | > 100 | 17.8 | 32.8 | 20.5 | 38.8
2 | CC1(C)N=C(N)N=C(N)N1c1cccc(CCc2ccccc2)c1 | 1.1 | > 100 | 0.429 | 34.8 | 0.696 | > 100 | 0.599 | > 89.2 | 0.456 | 14.6 | 0.574 | 16.9 | 1.04 | > 68.9 |  | > 100 | 0.429 | 8.82 | 0.297 | > 43
3 | COc1cc(NC2CCCCC2O)c2nc(-c3ccc(Cl)cc3)ccc2c1 (centres undefined) | 18.1 | > 100 | 4.83 | > 100 | 21.7 | > 100 | 3 | 46.6 | 3.82 | 29.2 | 6.87 | 20.7 | 14.4 | > 100 | 19.1 | > 100 | 10.6 | 23.1 | 0.358 | 35.5
4 | COc1ccc(/C=C/C(=O)c2cc3c(N)c(C(=O)Nc4ccc(OC)cc4)sc3nc2C)cc1 | 1.3 | > 50 | 0.178 | > 26.5 | 0.746 | > 41.3 | 0.697 | > 50 | 0.203 | 20.5 | 0.158 | 0.609 | 0.4 | > 50 | 0.299 | > 50 | 0.203 | 4.03 | 0.0644 | > 50
